Test results taken from patent publication US20110269680A1 (PANACEA BIOTEC LIMITED, priority 2008, published 2011).
Numbered stars: 1 amine (or outer) side, 2 acyl side, 3 side chain; on linkers, the order of the positions; unused ones are H or OH. Square brackets hold non-standard residues; d marks the D form. Ends that are not written are not given here. Peptide text beside a SMILES is read from it. 2Furoyl(5-aminomethyl) = O=C(c1ccc(CN[*:1])o1)[*:2]; Aib = CC(C)(N)C(=O)O

Key:
DPP-IV = target: T1, DPP-IV (Homo sapiens, UniProt P27487); test: DPP-IV resistant assay; format: in vitro ADME; details: for half-life at 20 μM: pH 8
T1 construct: purchased Sigma-Aldrich
T1 sequence (P27487 whole entry, species assumed): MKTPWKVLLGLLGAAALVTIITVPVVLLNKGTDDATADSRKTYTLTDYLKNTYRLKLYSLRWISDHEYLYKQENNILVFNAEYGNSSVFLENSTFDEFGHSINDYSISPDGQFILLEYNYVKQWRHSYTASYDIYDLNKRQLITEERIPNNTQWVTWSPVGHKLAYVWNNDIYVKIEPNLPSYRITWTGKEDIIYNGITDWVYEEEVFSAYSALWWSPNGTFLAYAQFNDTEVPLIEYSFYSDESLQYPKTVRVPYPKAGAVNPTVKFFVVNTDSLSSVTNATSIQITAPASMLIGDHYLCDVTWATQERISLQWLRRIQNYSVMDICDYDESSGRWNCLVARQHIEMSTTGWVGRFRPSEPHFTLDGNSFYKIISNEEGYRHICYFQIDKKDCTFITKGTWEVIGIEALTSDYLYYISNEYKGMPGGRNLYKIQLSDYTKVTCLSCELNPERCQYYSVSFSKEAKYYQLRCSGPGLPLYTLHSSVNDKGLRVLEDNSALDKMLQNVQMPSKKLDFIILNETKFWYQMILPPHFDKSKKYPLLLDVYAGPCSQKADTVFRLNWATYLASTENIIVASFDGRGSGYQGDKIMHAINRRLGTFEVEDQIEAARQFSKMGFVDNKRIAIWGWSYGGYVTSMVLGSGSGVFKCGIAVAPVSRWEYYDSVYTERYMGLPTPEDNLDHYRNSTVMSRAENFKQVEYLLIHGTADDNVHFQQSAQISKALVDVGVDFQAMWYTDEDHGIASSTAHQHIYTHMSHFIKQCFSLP
Protocol: 20 μM of peptides of the present invention (Sequence IDs—01, 02, 03, 04, 05, 06, 11, 12 and 13) were incubated with 60 mU/2 ml of DPP-IV (Sigma-Aldrich) enzyme at room temperature (22-24° C.) in 20 mM Tris HCl buffer, pH 8.0. The aliquots were analyzed for the amount of undegraded peptide concentration at different time intervals by RP-HPLC. The peak area integration was used to determine the amount of undegraded peptide (U.S. Pat. No. 7,067,488). T1/2 of each peptide was determined from the graph plotted between peak area of undegraded peptide vs. time. The peak area of DPP-IV untreated peptide in above mentioned buffer condition of same concentration was considered as time zero. […]

NEP 24.11 = target: T2, NEP 24.11 (Homo sapiens, UniProt P08473); test: NEP 24.11 resistant (degradation) assay; format: in vitro ADME; details: pH 7.4; for half-life at 20 μM: buffer; for metabolised at 54 h, 20 μM: isolated enzyme neprilysin
T2 construct: purchased Calbiochem
T2 sequence (P08473 whole entry): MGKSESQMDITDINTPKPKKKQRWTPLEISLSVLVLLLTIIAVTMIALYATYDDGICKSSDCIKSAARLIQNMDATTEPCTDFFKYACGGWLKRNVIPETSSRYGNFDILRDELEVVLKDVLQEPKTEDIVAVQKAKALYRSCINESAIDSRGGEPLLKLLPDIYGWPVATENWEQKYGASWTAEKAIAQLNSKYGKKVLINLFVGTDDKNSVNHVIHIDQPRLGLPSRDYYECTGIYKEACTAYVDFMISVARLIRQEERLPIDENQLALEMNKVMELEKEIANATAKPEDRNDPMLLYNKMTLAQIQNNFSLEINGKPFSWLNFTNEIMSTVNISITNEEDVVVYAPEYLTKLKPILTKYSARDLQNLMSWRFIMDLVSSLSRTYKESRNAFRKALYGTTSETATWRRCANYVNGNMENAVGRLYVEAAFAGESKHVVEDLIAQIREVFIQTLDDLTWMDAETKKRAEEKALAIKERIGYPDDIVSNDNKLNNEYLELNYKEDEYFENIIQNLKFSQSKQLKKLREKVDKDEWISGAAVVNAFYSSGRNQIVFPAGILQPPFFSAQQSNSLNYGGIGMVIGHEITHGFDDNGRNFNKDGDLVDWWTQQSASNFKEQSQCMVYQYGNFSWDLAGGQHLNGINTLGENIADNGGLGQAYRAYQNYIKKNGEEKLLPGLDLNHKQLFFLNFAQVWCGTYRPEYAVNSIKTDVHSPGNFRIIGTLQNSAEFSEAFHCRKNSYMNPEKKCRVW
Protocol: The aliquots were analyzed for the amount of undegraded peptide concentration at different time intervals using RP-HPLC by peak area integration. T1/2 of each peptide was determined from the graph plotted between peak area of undegraded peptide vs time.

C57/BL6 male mice = test: OGTT and dose response effect of peptide of Seq ID No. 01; format: in vivo
Protocol: C57/BL6 male mice were fasted for 6 hrs. After 6 h of fasting, blood was drawn from a small tail clip for glucose level determination. […] Glucose was given orally at the ratio 1 mg/g body wt. per mouse 5 min after the administration of peptide. Blood glucose levels were determined at different time intervals i.e. at 0, 15, 30, 60, and 120 min during a period of 2 hours using a portable glucometer. The saline solution was used as control negative in the experiment.

db/db mice = test: Anti-diabetic activity of peptide in db/db mice; format: in vivo; details: 25 nmol/kg daily i.p., versus saline
Protocol: Animals of two different age groups (6-8 and 10-12 weeks old db/db mice) were included in this study. 6-8 week old mice were chosen as pre-diabetic mice and 10-12 week old as the full-diabetic mice. The preventive effect of peptide of Seq. ID No. 01 on the progression of diabetes in pre-diabetic mice was examined. The effect of peptide of Seq. ID No. 01 in full-diabetic mice was also studied. […] Blood glucose levels were measured on day 0, 14, 28 and 42. Test peptide of Seq ID No. 01 was injected i.p. according to body weight and the feed was removed. Mice were not fed till 4 hrs following injection of the peptide on the day of blood sample testing. Normal chow was given after the 4 hr time point. […] Test compound/vehicle (saline solution i.e. control negative) to be administered at 0 hr.

GLP-1R = target: T3, GLP-1R (Homo sapiens, UniProt P43220); test: In vitro receptor functional assay (cAMP) in CHO/GLP-1R cells; format: cell-based; details: intracellular cAMP, 30 min with 1 mM IBMX
T3 construct: expressed in transfected cells; host or cells: CHO/GLP-1R cells
T3 sequence (P43220 24-463, species assumed): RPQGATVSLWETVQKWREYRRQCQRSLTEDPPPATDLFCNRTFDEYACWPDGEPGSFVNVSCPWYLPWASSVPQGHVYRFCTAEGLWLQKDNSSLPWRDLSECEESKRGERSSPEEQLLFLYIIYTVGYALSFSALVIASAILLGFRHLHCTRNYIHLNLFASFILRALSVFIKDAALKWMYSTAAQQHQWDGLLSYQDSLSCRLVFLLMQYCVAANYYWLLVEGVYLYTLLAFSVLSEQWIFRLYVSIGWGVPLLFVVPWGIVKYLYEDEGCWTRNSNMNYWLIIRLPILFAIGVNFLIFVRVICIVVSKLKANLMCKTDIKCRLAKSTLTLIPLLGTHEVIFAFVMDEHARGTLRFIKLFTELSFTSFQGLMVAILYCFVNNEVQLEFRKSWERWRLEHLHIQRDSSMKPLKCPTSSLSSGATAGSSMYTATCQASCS
Description: cAMP is a ubiquitous cellular second messenger that is critical component of a signal transduction pathway linking membrane receptors and their ligands to the activation of internal cellular enzymatic activity and gene expression. cAMP is synthesized from ATP by membrane bound adenylate cyclase in a very regulated manner. In its simpler form, binding of a ligand, such as hormone or drug, to its specific G protein coupled receptor can either stimulate or inhibit adenylate cyclase depending on the GPCR being activated. […] Therefore the relative concentration of cAMP serves as a means to monitor the activity of GPCRs at the cell surface.
CHO/GLP-1R Cell Culture—CHO/GLP-1R Cells were maintained in Ham's F-12 medium containing 10% Fetal bovine serum and 1% penicillin-streptomycin antibiotic solution at 37° C. in a 5% CO2 incubator.
Cells were washed twice with PBS (pH-7.2) and incubated with 100 μl Ham's F-12 serum free medium supplemented with 0.1% BSA for 2 hr at 37° C. in 5% CO2 incubator. Cells were then incubated in 100 μl Ham's F-12 serum free medium supplemented with 0.1% BSA with 1 mM IBMX in the presence as well as absence of the peptides as per present invention in different concentration (10 nM, 1 nM, 100 pM & 10 pM). The reaction was stopped 30 min later by washing the intact cells three times with ice cold PBS (pH-7.2). The intracellular cAMP was extracted by incubating the cells in 100 μl 0.1N HCl at room temperature for 20 minutes. Mixture was dissociated by pipetting up and down until the suspension became homogenous, transferred to centrifuge tube and centrifuged at 800 rpm for 10 minutes.
Dissolved 5 pNPP tablets in 25 ml DEA buffer. Wells were emptied and washed five times with wash buffer and added 200 μl pNPP solution to each well, plate was covered and allowed to develop in dark for 90 minutes.

C57BL/6 mice = test: Oral Glucose Tolerance Test (OGTT) in C57BL/6 mice, 2 μg per mouse; format: in vivo; details: 2 μg/mouse intraperitoneally, FIG. 4
Protocol: A volume of 100 μl of peptides of present invention (2 μg per mouse) were injected intraperitoneally into 6 hr fasted C57BL/6 normal male/female mice (4-6 wk). After 6 h of fasting, fasting glucose level was be assessed by using a Glucometer (Accu-Chek) from tail vein or the retro-orbital sinus. Glucose was given orally at the ratio 1 mg/g body wt. per mouse 5 min after the administration of peptides. Blood glucose levels were assessed at different time points i.e. at 0, 15, 30, 60, 120 and 180 min.
The graph was plotted for blood glucose (mg/dl) level against time.
The saline solution was administered to the female mice as control negative.

Row | Percentage degradation in hrs (DPP-IV) | half-life at 20 μM (DPP-IV) | half-life at 20 μM (NEP 24.11) | metabolised at 54 h, 20 μM (NEP 24.11) | EC50 (GLP-1R) | Molecule | optimum dose (C57/BL6 male mice; OGTT dose response, intraperitoneally) | dose response, percent reduction in blood glucose (AUC0-60) (C57/BL6 male mice; OGTT, 100, 25, 10, 5 and 1 nmol/kg intraperitoneally, FIG. 11) | blood glucose level, progression of diabetes (db/db mice; 6-8 weeks old db/db mice, 42 days) | blood glucose level, activity versus control negative (db/db mice; 10-12 weeks old db/db mice, 28 days) | percent reduction in blood glucose (AUC0-60) compared with GLP-1(7-37) parent (C57BL/6 mice)
1 | 25% | > 72 h | 29 h | 92.6% |  | CC[C@H](C)[C@H](NC(=O)[C@H](Cc1ccccc1)NC(=O)[C@H](CCC(=O)O)NC(=O)[C@H](CCCCN)NC(=O)[C@H](C)NC(=O)[C@H](C)NC(=O)[C@H](CCC(N)=O)NC(=O)CNC(=O)[C@H](CCC(=O)O)NC(=O)[C@H](CC(C)C)NC(=O)[C@H](Cc1ccc(O)cc1)NC(=O)[C@H](CO)NC(=O)[C@H](CO)NC(=O)[C@@H](NC(=O)[C@H](CC(=O)O)NC(=O)[C@H](CO)NC(=O)[C@@H](NC(=O)[C@H](Cc1ccccc1)NC(=O)[C@@H](NC(=O)CNC(=O)[C@H](CCC(=O)O)NC(=O)c1ccc(CNC(=O)[C@@H](N)Cc2c[nH]cn2)o1)[C@@H](C)O)[C@@H](C)O)C(C)C)C(=O)N[C@@H](C)C(=O)N[C@@H](Cc1c[nH]c2ccccc12)C(=O)N[C@@H](CC(C)C)C(=O)N[C@H](C(=O)N[C@@H](CCCCN)C(=O)NCC(=O)N[C@@H](CCCNC(=N)N)C(=O)NCC(N)=O)C(C)C [Seq ID No. 01] | 25 nmol/kg | no significant difference between 100 nmol and 25 nmol doses | delayed the progression of diabetes as compared to control negative group | better activity as compared to control negative group | 
2 |  | 24.7 h | 49 h | 59.4% | 0.083 nM | CC[C@H](C)[C@H](NC(=O)[C@H](Cc1ccccc1)NC(=O)[C@H](CCC(=O)O)NC(=O)[C@H](CCCCN)NC(=O)[C@H](C)NC(=O)[C@H](C)NC(=O)[C@H](CCC(N)=O)NC(=O)CNC(=O)[C@H](CCC(=O)O)NC(=O)[C@H](CC(C)C)NC(=O)[C@H](Cc1ccc(O)cc1)NC(=O)[C@H](CO)NC(=O)[C@H](CO)NC(=O)C(C)(C)NC(=O)[C@H](CC(=O)O)NC(=O)[C@H](CO)NC(=O)[C@@H](NC(=O)[C@H](Cc1ccccc1)NC(=O)[C@@H](NC(=O)CNC(=O)[C@H](CCC(=O)O)NC(=O)CNC(=O)[C@@H](N)Cc1c[nH]cn1)[C@@H](C)O)[C@@H](C)O)C(=O)NC(C)(C)C(=O)N[C@@H](Cc1c[nH]c2ccccc12)C(=O)N[C@@H](CC(C)C)C(=O)N[C@H](C(=O)N[C@@H](CCCCN)C(=O)NCC(=O)N[C@@H](CCCNC(=N)N)C(N)=O)C(C)C [Seq ID No. 05] (H-HGEGTFTSD[Aib]SSYLEGQAAKEFI[Aib]WLVKGR-NH2) |  |  |  |  | 
3 |  |  |  |  |  | Seq ID No 01 (H[2Furoyl(5-aminomethyl)]EGTFTSDVSSYLEGQAAKEFIAWLVKGRG-NH2) |  |  |  |  | comparable activity to the GLP-1(7-37) parent peptide
4 |  |  |  |  |  | Seq ID No.05 (HGEGTFTSDXSSYLEGQAAKEFIXWLVKGR) |  |  |  |  | better activity than GLP-1(7-37) parent peptide
